# Reference: article PMC8162438, “Cancer cell-selective modulation of mitochondrial respiration and metabolism by potent organogold(III) dithiocarbamates” (Chemical Science, 2020)
# Test system: MDA-MB-231
# Assay: Cell fraction gold uptake by GF-AAS
# Type: cell-based
# Settings: MDA-MB-231, 5 μM, 24 h
# Method: We next performed cellular uptake studies to determine what percentage of the compounds were getting into the cell after treatment. Given that most therapeutic targets are localized receptors on the plasma membrane, quantifying the amount of gold compounds in cellular fractions and investigating their mode of uptake is crucial. For whole-cell uptake studies, MDA-MB-231 were treated with all 10 compounds and Auranofin at 5 μM for 24 h (Fig. 5A). Auranofin is the only gold-based therapeutic to be clinically approved, therefor we used this drug as a benchmark for comparison.[67] After treatment, the cells were washed with PBS, centrifuged, and digested with 0.5 mL of conc. HNO3 and diluted with DI water and subjected to ICP-OES analysis. […] Given that these complexes readily react with nucleophilic biological molecules and the lack of accumulation in the nuclear fraction, it is evident that the mechanism of action of this class of compounds is differentiated from the clinically available platinum agents. […]
# and treated at a final concentration of 5 µ M and treated for 24 hours as well. The cells were then collected by trypsinization and centrifuged at 2000 rpm for 5 minutes to form a pellet. The pellet was suspended in 1 mL of DMEM, transferred to a 1.5 mL Eppendorf tube, and centrifuged again at 2000 rpm for 5 minutes. […]
compound,measurement,value
C[N+](C)=C1[S][Au-2]2([S]1)[c]1ccccc1Cc1cccc[n+]12.F[P-](F)(F)(F)(F)F (stereo not shown) [2a],Au content localized in the cytoplasm and total membrane fraction (pellet),> 90%
